From PMC7395176, “Retromer stabilization results in neuroprotection in a model of Amyotrophic Lateral Sclerosis” (Nature Communications, 2020)

Tests used:
VPS29 = target: T1, VPS29 (Mus musculus, UniProt Q9QZ88); assay: Western blot for VPS29 in treated Neuro2a cells; format: cell-based; settings: 10 µM, 48 h, WB
T1 construct: endogenous in cells; host or cells: Neuro2a (ATCC CCL-131)
Procedure: Compound 2a increases VPS26b and VPS29 in Neuro2a […]
a,WBs forVPS26b, VPS29 and β-Tubulin in vehicle- and compound 2a-treated Neuro2a cells(10 μM, 48h, 3x10^5 cells/well).Quantitative analyses of blots (means ± SD) are shown inhistograms (control:n=4 independent wells, 2a: n=5 independent wells examined in one experiment, p<0.0001 for all the comparisons. Two-tailed Student’s test was used to determine the statisticalsignificanceof data, ***p<0.0001
(1 picture or pasted object on this page, not shown here)

G93A mice = assay: Daily treatment of G93A and WT mice, day 30 to day 100: tolerability, rotarod, histopathology; format: in vivo
Procedure: We administered compound 2a (10 mg/kg, i.p.) daily to G93A and WT littermates between day 30 and day 100. […] We next assessed the pathological degeneration of fibers in sciatic nerves of G93A mice treated with compound 2a. We observed axonal degeneration, with a substantial reduction of myelinated nerve fibers in vehicle-treated G93A mice (Fig. 5a, b)[39]. […] Using Luxol Fast Blue (LFB) to label lipoproteins of the myelin sheath, we analyzed myelination.
Mice were maintained under pathogen-free conditions at San Raffaele Hospital mouse facility (Milan, Italy). All efforts were made to minimize animal suffering and to reduce the number of mice used in accordance with the European Communities Council Directive of 24 November 1986 (86/609/EEC). The Ethics Review Committee approved experimental protocols according guidelines from the Italian Ministry of Health and from the Institutional Animal Care and Use Committee of the San Raffaele Scientific Institute (protocol number 704/2015PR). Transgenic mutant SOD1 mice carrying the SOD1^G93A allele (strain B6SJL-TgN[SOD1G93A]1GUR)[75] were purchased from Jackson laboratories, while C57BL/6J mice, used for breeding and experimental purposes, were purchased from Charles River (Italy). Both transgenic and WT mice had food and water freely available in the home-cage. The holding room was on a 12-h light–dark cycle, the temperature of the room was 22 ± 0.2 °C. Starting from day 30 we intraperitoneally injected compound 2a (10 mg/Kg) or vehicle in G93A mice as well as in C57BL/6J mice for 70 days. Additional experiments were performed injecting mice from day 83 to day 103. An operator blind to the treatment performed injections and manipulation of mice. At the day of the sacrifice, mice received an overdose of anesthetic drugs and they were perfused via vascular system with saline followed by 70–80 ml 4% paraformaldehyde (PF) in PBS, pH 7.2 (Sigma–Aldrich). Spinal cords were coronally sliced at ~6-mm thickness and postfixed in 4% PF in PBS, pH 7.2 for 12 h at +4 °C. Tissues were cryoprotected in PBS 1X/30% Sucrose (Sigma–Aldrich), embedded in OCT inclusion media and stored at −80 °C before processing. Lumbar spinal cords were 12-µm sectioned, labelled and digital images were acquired every 330 µm in a region encompassing 2.4 mm of the lumbar spinal cord. We determined numbers of mice by preliminary results or literature precedent.
Motor activity of mice receiving compound 2a or vehicle was assessed on 50-, 60-, 70-, 80-, 90-, and 100-days-old animals. Briefly, mice were trained 1 min on a static rotor and 1 min at constant speed (4 rpm) for two times and then we ran two trials performed over two consecutive days (one per day). Each trial consisted of 6-test sessions with 15 min interval between sessions. For each session, we placed mice on an accelerating rotor (4–40 rpm) and the latency to fall was recorded, with a maximum limit for individual animal set at 600 seconds.
Quantification of nerves degeneration was done on sciatic nerves obtained from saline-perfused mice. Tissues were fixed in 2% buffered glutaraldehyde (Sigma–Aldrich), postfixed in 1% osmium tetroxide and cut to obtain 1 µm thick sections. We stained sections with toluidine blue and specimens were blindly examined by light microscopy using ×40 objective. For each nerve, we merged images to obtain the entire nerve cross section. Five consecutive nonoverlapping semi-thin sections from each sample were analyzed with NHI-Image J software (US National Institutes of Health). Degenerating fibers were counted in the entire nerve cross section.
Quantification of myelin was done on sagittal sciatic nerves by Luxol fast blue (LFB). Briefly, nerve sections were incubated the ethanol series before receiving 0.1% LFB overnight at 60 °C. Sections were then incubated 5 min in 0.05% lithium carbonate before receiving the ethanol series and xylene. Bright field microcopy of nerves at ×63 was used for quantification. […]

NC(N)=N/N=C/c1cccc(/C=N/N=C(N)N)c1 [compound 2a, phenyl-1,3-bis-guanylhydrazone]
VPS29 protein levels (VPS29): significantly increased | distress or pain (G93A mice; 10 mg/kg i.p. daily, day 30 to day 100): did not observe distress or undesirable pain | progression of motor deficits (latency to fall, rotarod) (G93A mice; G93A mice, 10 mg/kg i.p. daily, day 30 to day 100): significantly slowed down | reduction of degenerating fibers in sciatic nerves (G93A mice; G93A mice, 10 mg/kg, day 100): ~30% | MNs in ventral horns of lumbar SCs (G93A mice; G93A mice, 10 mg/kg, day 100, versus vehicle-treated G93A mice): more MNs | total number of Iba1+ cells (G93A mice; SC ventral horn, G93A mice, 10 mg/kg, day 100, versus vehicle): Neither CD14 levels nor the total number of Iba1^+ cells changed | body weight (G93A mice; WT and G93A mice, 10 mg/kg i.p. daily, day 30 to day 100): slight, but not significant reduction of body weight | locomotion performances (G93A mice; WT mice, 10 mg/kg i.p. daily, rotarod): did not observe alterations of locomotion performances | CD14 levels (G93A mice; lumbar SCs, G93A mice, 10 mg/kg, day 100, versus vehicle): Neither CD14 levels nor the total number of Iba1^+ cells changed | integrity of myelin (MBP, NF-M labelling) (G93A mice; sciatic nerves, G93A mice): preserved the integrity of myelin | demyelination (Luxol Fast Blue) (G93A mice; sciatic nerves, G93A mice, versus vehicle-treated G93A mice): substantial reduction of demyelination
